The term EC50 denotes the concentration needed to bring the measured effect to its halfway point. Read a low EC50 as an effect from little substance.

The test has as its target T1, human GPR119 (hGPR119) (Homo sapiens, UniProt Q8TDV5).
T1 construct: expressed in transfected cells; host or cells: CHO-K1
T1 sequence (Q8TDV5 1-335): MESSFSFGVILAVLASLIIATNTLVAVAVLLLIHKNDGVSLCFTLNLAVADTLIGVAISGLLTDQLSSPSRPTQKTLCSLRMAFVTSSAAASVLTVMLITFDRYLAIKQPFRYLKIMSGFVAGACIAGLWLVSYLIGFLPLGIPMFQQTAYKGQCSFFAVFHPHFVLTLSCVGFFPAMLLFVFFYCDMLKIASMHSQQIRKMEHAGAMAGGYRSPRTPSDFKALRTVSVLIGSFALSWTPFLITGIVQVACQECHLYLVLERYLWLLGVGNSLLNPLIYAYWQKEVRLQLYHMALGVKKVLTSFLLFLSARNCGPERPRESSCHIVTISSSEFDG
Description: cAMP accumulation assay in CHO-K1 cells stably expressing hGPR119. In kind it is cell-based. The conditions noted are these: cAMP HTRF, 60 minutes. The procedure:
CHO-K1 cells stably expressing human GPR119 (hGPR119) were prepared by transfection of a GPR119-carrying plasmid using Lipofectamine 2000 (following manufacturer instructions). A stable cell line was established using the limiting dilution method with geneticine selection. Assay-ready frozen (ARF) cells were prepared and used throughout the study.
The assay was performed in a 384-well plate format using the CAMP Gs dynamic assay kit from Cisbio. ARF cells expressing hGPR119 were thawed, washed and then resuspended in CAMP stimulation buffer at a cell density of 1.1×10^6 cells/mL. Cells were plated at a density of ~10,000 cells/well (9 μL/well). Dose response curves for the tested compounds were prepared in a cAMP stimulation buffer, containing 0.1% Tween 80 at 4 fold the final concentration. The compounds were then transferred to the cell plates using BRAVO (3 μL/well) and the plates were incubated for 60 minutes at 37° C./5% CO2. Detection buffer (10 μL, prepared as described in the CAMP Gs dynamic kit) were added to each well, and the plates were incubated at ambient temperature for 1 hr.
RT-FRET was measured using a ClarioSTAR plate reader, calculating the ratio between emissions at 665 nm and 620 nm (HTRF ratio). The HTRF ratio for positive (Max) and negative (Min) controls were used to normalize HTRF data and generate values for % activity. EC50 and Max activity values were determined using a standard 4-parameter fit.

The molecule `O=C(Cc1ccc(OCCCC2CCN(c3ncc(Cl)cn3)CC2)cc1F)N1CC(CNC[C@H](O)[C@H](O)[C@H](O)CO)C1` [Compound A60, 2-[4-[3-[1-(5-chloropyrimidin-2-yl)-4-piperidyl]propoxy]-2-fluoro-phenyl]-1-[3-[[[(2S,3S,4R)-2,3,4,5-tetrahydroxypentyl]amino]methyl]azetidin-1-yl]ethanone] yielded an EC50 of at most 100 nM.

As for `O=C(Cc1ccc(OCCCC2CCN(c3ncc(Cl)cn3)CC2)cc1F)N1CC(CNCC(O)(CO)CO)C1` [Compound A15, 2-[4-[3-[1-(5-chloropyrimidin-2-yl)-4-piperidyl]propoxy]-2-fluoro-phenyl]-1-[3-[[[2,3-dihydroxy-2-(hydroxymethyl)propyl]amino]methyl]azetidin-1-yl]ethanone], the EC50 is at most 100 nM.

As to `O=C(CC1CN(C(=O)Cc2ccc(OCCCC3CCN(c4ncc(Cl)cn4)CC3)cc2F)C1)NCCCCS(=O)(=O)O` [Compound A70, 4-[[2-[1-[2-[4-[3-[1-(5-chloropyrimidin-2-yl)-4-piperidyl]propoxy]-2-fluoro-phenyl]acetyl]azetidin-3-yl]acetyl]amino]butane-1-sulfonic acid], the EC50 fell in the range of 100 to 1000 nM.

Molecule `O=C(NCCCCCS(=O)(=O)O)C1CN(C(=O)Cc2ccc(OCCCC3CCN(c4ncc(Cl)cn4)CC3)cc2F)C1` [Compound A66, 5-[[1-[2-[4-[3-[1-(5-chloropyrimidin-2-yl)-4-piperidyl]propoxy]-2-fluoro-phenyl]acetyl]azetidine-3-carbonyl]amino]pentane-1-sulfonic acid] yielded an EC50 of 100 to 1000 nM.

Take `CCc1cnc(N2CCC(CCCOc3ccc(CC(=O)N4CC(CNCCNC(=O)NC(CO)(CO)CO)C4)c(F)c3)CC2)nc1` [Compound A35, 1-(1,3-dihydroxy-2-(hydroxymethyl)propan-2-yl)-3-(2-(((1-(2-(4-(3-(1-(5-ethylpyrimidin-2-yl)piperidin-4-yl)propoxy)-2-fluorophenyl)acetyl)azetidin-3-yl)methyl)amino)ethyl)urea]: the EC50 is at most 100 nM.

As to `CCCc1cnc(N2CCC(CCCOc3ccc(CC(=O)N4CC(CNCC(CO)CO)C4)c(F)c3)CC2)nc1` [Compound A40, 2-(2-fluoro-4-(3-(1-(5-propylpyrimidin-2-yl)piperidin-4-yl)propoxy)phenyl)-1-(3-(((3-hydroxy-2-(hydroxymethyl)propyl)amino)methyl)azetidin-1-yl)ethan-1-one], the EC50 was at most 100 nM.

With `O=C(NCCCCCCS(=O)(=O)O)C1CN(C(=O)Cc2ccc(OCCCC3CCN(c4ncc(Cl)cn4)CC3)cc2F)C1` [Compound A67, 6-[[1-[2-[4-[3-[1-(5-chloropyrimidin-2-yl)-4-piperidyl]propoxy]-2-fluoro-phenyl]acetyl]azetidine-3-carbonyl]amino]hexane-1-sulfonic acid], the EC50 is 100 to 1000 nM.

“1-[2-[2-fluoro-4-[3-[1-[5- (methoxymethyl)pyrimidin-2-yl]-4- piperidyl]propoxy]phenyl]acetyl]-N-[2-[2- hydroxy-1,1- bis(hydroxymethyl)ethyl]carbamoylamino] ethyl]azetidine-3-carboxamide [Compound A2]” had a 50% effective concentration (EC50) of 100 to 1000 nM.

`O=C(Cc1ccc(OCCCC2CCN(c3ncc(Cl)cn3)CC2)cc1F)N1CC(CCNC(CO)(CO)CO)C1` [Compound A29, 2-(4-(3-(1-(5-chloropyrimidin-2-yl)piperidin-4-yl)propoxy)-2-fluorophenyl)-1-(3-(2-((1,3-dihydroxy-2-(hydroxymethyl)propan-2-yl)amino)ethyl)azetidin-1-yl)ethan-1-one] registered an EC50 of 100 to 1000 nM.

Consider `O=C(Cc1ccc(OCCCC2CCN(c3ncc(Cl)cn3)CC2)cc1F)N1CC(CN[C@@H]2C[C@H](O)[C@@H](O)[C@H]2O)C1` (racemic) [Compound A21, 2-[4-[3-[1-(5-chloropyrimidin-2-yl)-4-piperidyl]propoxy]-2-fluoro-phenyl]-1-[3-[[[rac-(1R,2S,3R,4S)-2,3,4-trihydroxycyclopentyl]amino]methyl]azetidin-1-yl]ethanone], for which the EC50 is 100 to 1000 nM.

On to `O=C(Cc1ccc(OCCCC2CCN(c3ncc(Cl)cn3)CC2)cc1F)N1CC(CNCCOCCOCCO)C1` [Compound A23], for which the EC50 is at most 100 nM.

`CCOc1cnc(N2CCC(CCCOc3ccc(CC(=O)N4CC(CC(=O)NCC(O)(CO)CO)C4)c(F)c3)CC2)nc1` [Compound A57, N-[2,3-dihydroxy-2-(hydroxymethyl)propyl]-2-[1-[2-[4-[3-[1-(5-ethoxypyrimidin-2-yl)-4-piperidyl]propoxy]-2-fluoro-phenyl]acetyl]azetidin-3-yl]acetamide] returned an EC50 of at most 100 nM.

With `O=C(NCCCS(=O)(=O)O)C1CN(C(=O)Cc2ccc(OCCCC3CCN(c4ncc(Cl)cn4)CC3)cc2F)C1` [Compound A64, 3-[[1-[2-[4-[3-[1-(5-chloropyrimidin-2-yl)-4-piperidyl]propoxy]-2-fluoro-phenyl]acetyl]azetidine-3-carbonyl]amino]propane-1-sulfonic acid], the EC50 was at most 100 nM.

The molecule `O=C(NCC(O)(CO)CO)C1CN(C(=O)Cc2ccc(OCCCC3CCN(c4ncc(Cl)cn4)CC3)cc2F)C1` [Compound A5, 1-[2-[4-[3-[1-(5-chloropyrimidin-2-yl)-4-piperidyl]propoxy]-2-fluoro-phenyl]acetyl]-N-[2,3-dihydroxy-2-(hydroxymethyl)propyl]azetidine-3-carboxamide] gave an EC50 of at most 100 nM.

`NCCOCCOCCNCC1CN(C(=O)Cc2ccc(OCCCC3CCN(c4ncc(Cl)cn4)CC3)cc2F)C1` [Compound A24, 1-[3-[[2-[2-(2-aminoethoxy)ethoxy]ethylamino]methyl]azetidin-1-yl]-2-[4-[3-[1-(5-chloropyrimidin-2-yl)-4-piperidyl]propoxy]-2-fluoro-phenyl]ethanone]: the EC50 was 100 to 1000 nM.

Molecule `O=C(Cc1ccc(OCCCC2CCN(c3ncc(Cl)cn3)CC2)cc1F)N1CC(CN2C[C@H](O)[C@@H](O)C2)C1` (stereo in doubt) [Compound A18, 2-[4-[3-[1-(5-chloropyrimidin-2-yl)-4-piperidyl]propoxy]-2-fluoro-phenyl]-1-[3-[[rac-(3S,4S)-3,4-dihydroxypyrrolidin-1-yl]methyl]azetidin-1-yl]ethanone] showed a concentration for a half-maximal effect (EC50) of at most 100 nM.

Take `CCCc1cnc(N2CCC(CCCOc3ccc(CC(=O)N4CC(CNC(CO)(CO)CO)C4)c(F)c3)CC2)nc1` [Compound A42, 1-(3-(((1,3-dihydroxy-2-(hydroxymethyl)propan-2-yl)amino)methyl)azetidin-1-yl)-2-(2-fluoro-4-(3-(1-(5-propylpyrimidin-2-yl)piperidin-4-yl)propoxy)phenyl)ethan-1-one]: the EC50 is at most 100 nM.

In turn, `COCc1cnc(N2CCC(CCCOc3ccc(CC(=O)N4CC(C(=O)NC[C@H](O)[C@@H](O)[C@H](O)[C@H](O)CO)C4)c(F)c3)CC2)nc1` (racemic) [Compound A12, 1-[2-[2-fluoro-4-[3-[1-[5-(methoxymethyl)pyrimidin-2-yl]-4-piperidyl]propoxy]phenyl]acetyl]-N-[rac-(2S,3R,4R,5R)-2,3,4,5,6-pentahydroxyhexyl]azetidine-3-carboxamide] displayed an EC50 of 100 to 1000 nM.

Molecule `O=C(Cc1ccc(OCCCC2CCN(c3ncc(Cl)cn3)CC2)cc1F)N1CC(CCNC[C@H](O)[C@H](O)[C@H](O)CO)C1` [Compound A59, 2-[4-[3-[1-(5-chloropyrimidin-2-yl)-4-piperidyl]propoxy]-2-fluoro-phenyl]-1-[3-[2-[[(2S,3S,4R)-2,3,4,5-tetrahydroxypentyl]amino]ethyl]azetidin-1-yl]ethanone] yielded an EC50 of at most 100 nM.

`COCc1cnc(N2CCC(CCCOc3ccc(CC(=O)N4CC(CNC[C@H](O)[C@@H](O)[C@H](O)[C@H](O)CO)C4)c(F)c3)CC2)nc1` [Compound A53, 2-[2-fluoro-4-[3-[1-[5-(methoxymethyl)pyrimidin-2-yl]-4-piperidyl]propoxy]phenyl]-1-[3-[[[(2S,3R,4R,5R)-2,3,4,5,6-pentahydroxyhexyl]amino]methyl]azetidin-1-yl]ethanone] showed an EC50 of 100 to 1000 nM.

Consider `O=C(NC[C@H](O)[C@@H](O)[C@H](O)[C@H](O)CO)C1CN(C(=O)Cc2ccc(OCCCC3CCN(c4ncc(Cl)cn4)CC3)cc2F)C1` (racemic) [Compound A10, 1-[2-[4-[3-[1-(5-chloropyrimidin-2-yl)-4-piperidyl]propoxy]-2-fluoro-phenyl]acetyl]-N-[rac-(2S,3R,4R,5R)-2,3,4,5,6-pentahydroxyhexyl]azetidine-3-carboxamide], for which the EC50 was 100 to 1000 nM.

Consider `O=C(CC1CN(C(=O)Cc2ccc(OCCCC3CCN(c4ncc(Cl)cn4)CC3)cc2F)C1)NC(CO)(CO)CO` [Compound A7, 2-[1-[2-[4-[3-[1-(5-chloropyrimidin-2-yl)-4-piperidyl]propoxy]-2-fluoro-phenyl]acetyl]azetidin-3-yl]-N-[2-hydroxy-1,1-bis(hydroxymethyl)ethyl]acetamide], for which the EC50 lay in the range of 100 to 1000 nM.
